# Values quoted from earlier work, collected in patent publication US20080267939A1, “SYNERGISTIC ANTI-HYPERTENSIVE PHYTO-NUTRACEUTICAL COMPOSITION” (priority 2006, published 2008).
# Tests used:
# [1] = system: bacterial resistance mechanism (multidrug pump); settings: in the presence of 5′-MHC
# [2] = system: aged diabetic Zucker fatty rats
# [3] = system: blood pressure; settings: lower doses
# [4] = system: patients having class III or IV cardiomiopathy; settings: group A, during CoQ10 treatment, oral
# [5] = target: platelet activating factor (PAF) membrane receptors (Homo sapiens, UniProt P25105)
# [6] = target: T1, endothelial NO synthase (eNOS) (Homo sapiens, UniProt P29474)
# T1 sequence (P29474 1-1203): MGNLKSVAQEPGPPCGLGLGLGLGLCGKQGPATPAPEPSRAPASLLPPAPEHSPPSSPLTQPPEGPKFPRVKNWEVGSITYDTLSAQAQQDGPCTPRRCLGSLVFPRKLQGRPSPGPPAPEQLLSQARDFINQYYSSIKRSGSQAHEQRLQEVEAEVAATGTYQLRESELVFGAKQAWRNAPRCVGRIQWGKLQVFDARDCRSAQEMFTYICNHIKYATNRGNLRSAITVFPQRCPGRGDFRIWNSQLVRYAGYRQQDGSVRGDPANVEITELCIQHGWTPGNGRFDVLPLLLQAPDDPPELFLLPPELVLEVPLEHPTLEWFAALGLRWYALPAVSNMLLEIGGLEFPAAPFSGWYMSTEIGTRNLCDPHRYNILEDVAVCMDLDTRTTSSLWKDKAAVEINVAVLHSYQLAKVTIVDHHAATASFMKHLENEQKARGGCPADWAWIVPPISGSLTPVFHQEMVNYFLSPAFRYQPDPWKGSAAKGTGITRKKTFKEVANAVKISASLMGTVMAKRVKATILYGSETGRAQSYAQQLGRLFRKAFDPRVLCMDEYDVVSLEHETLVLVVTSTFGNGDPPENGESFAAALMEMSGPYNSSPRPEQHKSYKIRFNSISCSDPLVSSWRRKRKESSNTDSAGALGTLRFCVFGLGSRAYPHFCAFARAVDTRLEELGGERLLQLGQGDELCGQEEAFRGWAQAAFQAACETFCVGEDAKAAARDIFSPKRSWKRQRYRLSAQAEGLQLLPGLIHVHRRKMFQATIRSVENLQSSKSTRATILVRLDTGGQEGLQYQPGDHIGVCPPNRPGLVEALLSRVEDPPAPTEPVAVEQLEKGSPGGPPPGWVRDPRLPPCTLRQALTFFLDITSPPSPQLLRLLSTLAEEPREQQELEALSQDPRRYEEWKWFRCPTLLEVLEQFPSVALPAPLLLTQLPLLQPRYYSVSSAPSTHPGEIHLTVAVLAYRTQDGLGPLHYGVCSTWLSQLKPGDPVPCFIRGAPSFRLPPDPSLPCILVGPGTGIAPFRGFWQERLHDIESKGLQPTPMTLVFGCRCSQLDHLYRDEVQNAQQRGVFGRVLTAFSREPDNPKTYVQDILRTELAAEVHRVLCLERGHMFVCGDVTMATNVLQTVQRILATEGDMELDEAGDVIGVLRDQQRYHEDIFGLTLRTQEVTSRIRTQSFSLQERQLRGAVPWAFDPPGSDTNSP
# [7] = system: blood pressure; settings: in vivo
# [8] = system: rabbit aortic rings; settings: pre-contracted rabbit aortic rings
# [9] = system: renal hypertensive dogs; settings: chronic oral administration
# [10] = target: T2, L-type calcium channel (Rattus norvegicus, UniProt P22002); settings: rat ventricular myocytes
# T2 construct: Effect of puerarin on L-type calcium channel in isolated rat ventricular myocytes; endogenous in cells; host or cells: isolated rat ventricular myocytes
# [11] = system: rat aorta; settings: endothelium-intact and endothelium-denuded rat aorta
# [12] = system: blood pressure; settings: clinically
# [13] = system: vascular smooth muscle cells
# [14] = system: laboratory animals
# [15] = target: T3, L-type calcium channel (Cavia porcellus, UniProt O35505); settings: isolated guinea pig ventricular myocytes
# T3 construct: calcium channel in isolated guinea pig ventricular myocytes; endogenous in cells; host or cells: isolated guinea pig ventricular myocytes
# [16] = system: rats with pre-eclampsia
# [17] = system: spontaneously hypertensive rats
# [18] = system: vascular smooth muscle cells; remark: listed apart in the source
# [19] = system: rat aorta
# Chain of platelet activating factor (PAF) membrane receptors (P25105 whole entry): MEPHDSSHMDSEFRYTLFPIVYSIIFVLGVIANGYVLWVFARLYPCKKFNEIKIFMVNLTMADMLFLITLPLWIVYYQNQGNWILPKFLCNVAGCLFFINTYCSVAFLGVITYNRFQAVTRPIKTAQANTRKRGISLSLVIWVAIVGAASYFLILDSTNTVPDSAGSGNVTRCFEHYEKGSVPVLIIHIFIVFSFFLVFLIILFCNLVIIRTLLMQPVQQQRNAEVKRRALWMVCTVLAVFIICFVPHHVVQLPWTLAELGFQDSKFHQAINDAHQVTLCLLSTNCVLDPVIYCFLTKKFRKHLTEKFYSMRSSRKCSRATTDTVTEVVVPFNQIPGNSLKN
# T2 sequence (P22002 whole entry, other chains not shown): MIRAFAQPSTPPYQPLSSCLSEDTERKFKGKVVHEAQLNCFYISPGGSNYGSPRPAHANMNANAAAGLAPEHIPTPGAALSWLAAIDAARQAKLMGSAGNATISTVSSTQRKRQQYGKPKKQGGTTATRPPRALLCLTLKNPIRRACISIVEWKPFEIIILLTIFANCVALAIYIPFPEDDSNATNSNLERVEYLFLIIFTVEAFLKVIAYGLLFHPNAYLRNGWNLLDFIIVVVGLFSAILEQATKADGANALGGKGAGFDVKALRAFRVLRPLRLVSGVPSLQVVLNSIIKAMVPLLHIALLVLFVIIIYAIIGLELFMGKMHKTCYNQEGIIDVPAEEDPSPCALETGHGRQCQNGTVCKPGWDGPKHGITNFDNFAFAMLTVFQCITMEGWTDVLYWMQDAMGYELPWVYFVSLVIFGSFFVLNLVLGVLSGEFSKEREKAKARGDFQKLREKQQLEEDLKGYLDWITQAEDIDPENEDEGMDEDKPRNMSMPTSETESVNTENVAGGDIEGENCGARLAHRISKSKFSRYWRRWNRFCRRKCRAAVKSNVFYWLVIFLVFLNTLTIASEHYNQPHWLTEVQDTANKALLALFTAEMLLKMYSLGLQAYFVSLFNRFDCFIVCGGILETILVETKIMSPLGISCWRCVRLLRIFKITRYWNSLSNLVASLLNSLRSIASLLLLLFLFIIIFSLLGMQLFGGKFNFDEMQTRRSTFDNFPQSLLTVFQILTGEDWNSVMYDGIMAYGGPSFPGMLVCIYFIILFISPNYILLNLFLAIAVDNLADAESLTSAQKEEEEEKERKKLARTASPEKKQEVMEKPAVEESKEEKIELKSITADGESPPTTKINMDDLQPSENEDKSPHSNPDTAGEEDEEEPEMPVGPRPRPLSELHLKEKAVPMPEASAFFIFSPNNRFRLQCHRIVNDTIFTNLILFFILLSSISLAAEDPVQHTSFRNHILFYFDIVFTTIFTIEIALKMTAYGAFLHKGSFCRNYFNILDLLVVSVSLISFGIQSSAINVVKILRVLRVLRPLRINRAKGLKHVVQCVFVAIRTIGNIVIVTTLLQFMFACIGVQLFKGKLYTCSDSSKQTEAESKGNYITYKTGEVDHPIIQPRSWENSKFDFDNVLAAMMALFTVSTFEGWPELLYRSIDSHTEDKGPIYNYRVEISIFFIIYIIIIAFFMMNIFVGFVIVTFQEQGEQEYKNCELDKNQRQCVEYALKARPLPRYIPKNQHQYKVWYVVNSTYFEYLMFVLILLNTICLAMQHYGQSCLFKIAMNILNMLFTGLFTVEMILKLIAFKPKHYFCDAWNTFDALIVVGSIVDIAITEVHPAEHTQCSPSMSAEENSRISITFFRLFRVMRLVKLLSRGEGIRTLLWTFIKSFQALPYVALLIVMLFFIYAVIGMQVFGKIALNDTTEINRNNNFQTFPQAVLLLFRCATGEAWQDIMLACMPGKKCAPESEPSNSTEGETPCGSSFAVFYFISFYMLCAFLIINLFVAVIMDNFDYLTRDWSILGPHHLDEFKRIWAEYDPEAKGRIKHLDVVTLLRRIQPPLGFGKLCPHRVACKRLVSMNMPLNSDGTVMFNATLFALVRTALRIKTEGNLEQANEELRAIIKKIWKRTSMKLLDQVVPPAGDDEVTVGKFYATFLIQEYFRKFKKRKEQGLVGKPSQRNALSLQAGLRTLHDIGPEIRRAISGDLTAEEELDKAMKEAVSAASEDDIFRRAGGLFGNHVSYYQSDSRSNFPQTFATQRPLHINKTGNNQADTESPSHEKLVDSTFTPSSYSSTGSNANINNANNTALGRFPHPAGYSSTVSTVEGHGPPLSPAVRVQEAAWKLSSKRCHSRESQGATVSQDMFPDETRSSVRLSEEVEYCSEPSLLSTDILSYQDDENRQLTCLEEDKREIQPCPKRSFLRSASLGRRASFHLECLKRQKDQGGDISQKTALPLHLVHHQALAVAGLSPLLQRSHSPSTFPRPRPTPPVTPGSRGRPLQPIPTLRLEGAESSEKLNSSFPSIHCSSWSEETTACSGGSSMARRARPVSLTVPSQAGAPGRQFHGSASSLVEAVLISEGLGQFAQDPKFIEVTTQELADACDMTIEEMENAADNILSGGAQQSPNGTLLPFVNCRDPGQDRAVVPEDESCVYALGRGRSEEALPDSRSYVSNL
# T2 sequence (P54290 25-944 partner limits assumed, other chains not shown): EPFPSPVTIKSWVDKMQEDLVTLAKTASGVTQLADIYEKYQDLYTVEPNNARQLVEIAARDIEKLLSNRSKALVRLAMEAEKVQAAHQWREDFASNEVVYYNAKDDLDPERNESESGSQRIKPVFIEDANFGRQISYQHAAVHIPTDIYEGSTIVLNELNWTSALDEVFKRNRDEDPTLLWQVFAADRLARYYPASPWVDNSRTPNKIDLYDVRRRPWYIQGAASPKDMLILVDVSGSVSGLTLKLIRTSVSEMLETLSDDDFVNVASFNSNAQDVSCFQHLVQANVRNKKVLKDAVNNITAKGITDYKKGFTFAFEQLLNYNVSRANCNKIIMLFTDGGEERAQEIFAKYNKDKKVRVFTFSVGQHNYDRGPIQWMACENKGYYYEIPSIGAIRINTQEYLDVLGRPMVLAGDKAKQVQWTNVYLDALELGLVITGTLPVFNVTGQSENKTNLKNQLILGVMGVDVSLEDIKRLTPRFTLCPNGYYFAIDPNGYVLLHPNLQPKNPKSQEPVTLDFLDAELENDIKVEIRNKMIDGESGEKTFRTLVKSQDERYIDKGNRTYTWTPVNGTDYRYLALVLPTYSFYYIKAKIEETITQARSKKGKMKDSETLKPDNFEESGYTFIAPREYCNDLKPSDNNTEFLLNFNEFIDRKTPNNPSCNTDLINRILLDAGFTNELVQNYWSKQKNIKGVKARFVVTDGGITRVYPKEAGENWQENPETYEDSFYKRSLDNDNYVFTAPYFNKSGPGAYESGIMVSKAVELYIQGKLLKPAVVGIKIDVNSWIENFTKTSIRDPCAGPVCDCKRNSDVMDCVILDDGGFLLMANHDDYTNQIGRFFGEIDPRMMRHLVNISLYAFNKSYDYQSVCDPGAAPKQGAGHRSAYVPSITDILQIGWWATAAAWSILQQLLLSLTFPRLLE
# T2 sequence (P54290 945-1091 partner limits assumed, other chains not shown): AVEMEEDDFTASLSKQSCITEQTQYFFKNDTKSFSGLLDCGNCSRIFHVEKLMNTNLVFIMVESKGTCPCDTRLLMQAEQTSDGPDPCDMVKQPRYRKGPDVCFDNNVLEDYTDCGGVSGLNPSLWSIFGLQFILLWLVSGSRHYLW
compound,measurement,setting,value
"COc1cc([C@H]2Oc3cc(-c4cc(=O)c5c(O)cc(O)cc5o4)cc(OC)c3O[C@@H]2CO)ccc1O (racemic) [5′-MHC, 5′-methoxyhydnocarpin]",accumulation of berberine in the cells,[1],strong increase
"O=C(O)CC(O)(C(=O)O)C(O)C(=O)O (single isomer, unassigned; (-)) [(−)-hydroxycitric acid (HCA), (−)-hydroxycitric acid]",blood pressures compared to control,[2],significantly lowered blood pressures
CCCCC[C@H](O)CC(=O)CCc1ccc(O)c(OC)c1 [(6)-gingerol],response on the blood pressure,[3],produced depressor response
CCCCC/C=C/C(=O)CCc1ccc(O)c(OC)c1 [(6)-shogaol],response on the blood pressure,[3],produced depressor response
"COC1=C(OC)C(=O)C(C/C=C(\C)CC/C=C(\C)CC/C=C(\C)CC/C=C(\C)CC/C=C(\C)CC/C=C(\C)CC/C=C(\C)CC/C=C(\C)CC/C=C(\C)CCC=C(C)C)=C(C)C1=O [CoQ10, Coenzyme Q10]",cardiac function,[4],significant increases in cardiac function
CC1C(=O)OC2C(O)C34C5CC(C(C)(C)C)C36C(OC(=O)C6O)OC4(C(=O)O5)C12O (centres unmarked) [Ginkgolide B],inhibition of platelet activating factor (PAF),[5],powerful inhibitor
CC(C)=CCC[C@](C)(O[C@@H]1O[C@H](CO)[C@@H](O)[C@H](O)[C@H]1O)[C@H]1CC[C@]2(C)[C@@H]1[C@H](O)C[C@@H]1[C@@]3(C)CC[C@H](O)C(C)(C)[C@@H]3[C@@H](O[C@@H]3O[C@H](CO)[C@@H](O)[C@H](O)[C@H]3O[C@@H]3O[C@@H](C)[C@H](O)[C@@H](O)[C@H]3O)C[C@]12C [Ginsenoside Re],eNOS activation / NO release,[6],activate endothelial NO synthase (eNOS) to release NO
C[C@@H]1O[C@@H](O[C@@H]2[C@@H](O)[C@H](OCCc3ccc(O)c(O)c3)O[C@H](CO)[C@H]2OC(=O)/C=C/c2ccc(O)c(O)c2)[C@H](O[C@@H]2OC[C@@H](O)[C@@H](O)[C@@H]2O)[C@H](O)[C@H]1O [Lavandulifolioside],blood pressure,[7],decreases blood pressure
"O=C(O)CC[N+](=O)[O-] [NPA, 3-Nitropropionic acid]",relaxation of aortic rings,[8],dose-dependent relaxation
same,blood pressure,[9],decrease in blood pressure
"O=c1c(-c2ccc(O)cc2)coc2c([C@@H]3O[C@H](CO)[C@@H](O)[C@H](O)[C@H]3O)c(O)ccc12 [Puerarin, puerarin]",L-type calcium current,[10],inhibit L-type calcium current
same,contractions induced by phenylephrine,[11],completely relaxed
same,systolic and diastolic blood pressure,[12],reduces both systolic and diastolic blood pressure
same,proliferation and DNA synthesis of vascular smooth muscle cells,[13],suppress
same,decrease of blood pressure,[14],15%
same,effect on L-type calcium channel,[15],blocking effect on L-type calcium channel in a concentration dependent manner
same,NO concentration and blood pressure,[16],elevate the level of NO concentration and decrease blood pressure
COc1cc(/C=C/C(=O)O)ccc1O [ferulic acid],carotid arterial pressure,"[17]; intravenous injection, anesthetized hypertensive rats",dose dependently reduced
same,systolic blood pressure,"[17]; oral administration, hypertensive rats",significantly decreased
CCC/C=C1\OC(=O)C2=C1CCC=C2 [ligustilide],vascular smooth muscle cells proliferation and cell cycle progression,[18],significantly inhibited
Cycloleonuripeptide E,vasorelaxant effects,[19],moderate vasorelaxant effects
cycloleonuripeptide F,vasorelaxant effects,[19],moderate vasorelaxant effects
niacin-bound chromium,blood pressures compared to control,[2],significantly lowered blood pressures
